Patent US20250057930A1, “ANAPLASTIC LYMPHOMA KINASE (ALK) CANCER VACCINES AND METHODS OF USE THEREOF” (The Children's Medical Center Corporation, priority 2022, published 2025)
Ends that are not written are not given here.

What was measured:
[1] = Toxicity of the ALK vaccine in HLA-A*02:01 and HLA-B*07:02 transgenic mice; assay type: in vivo, mouse; settings: for toxicity in vaccinated mice: HLA-A*02:01 (AMLDLLHVA) and HLA-B*07:02 (IVRCIGVSL) transgenic mice, CDN adjuvant; for CD8^+ T cells in the hypothalamus region / H&E and pan-HLA immunohistochemistry staining of the hypothalamus region / weight gain: mouse, in vivo
From the text: Transgenic mice (HLA-A*02:01 and HLA-1B*07:02) were vaccinated as shown in the schematic in FIG. 18A with either […] (SEQ ID NO: 7) or […] (SEQ ID NO: 4) peptides, respectively, and cyclic dinucleotides (CDN) adjuvant. Weight measurements were taken at discrete time points. Next, splenocytes were isolated and assayed and brain tissue was sectioned and imaged (FIG. 18C).

[2] = system: ALK-rearranged (ALK^+) NSCLC; settings: first-line treatment; cited from earlier work
[3] = system: splenocytes isolated from mice vaccinated with ALK-DNA vaccine; assay: IFN-γ ELISPOT screening of synthetic long peptides on splenocytes of ALK-DNA vaccinated mice; assay type: cell-based, mouse; settings: ALK-DNA vaccine group, average ±SEM
Experimental: Despite the known immunogenicity of the ALK protein, the data imply that ALK^+ mouse lung tumors induce an immune response insufficient to be activated by immune checkpoint inhibitor (ICI) treatment. Therefore, it was decided to directly investigate anti-ALK immune responses during ICI treatment by identifying the specific ALK peptides that induce T-cell mediated immune responses in mouse models. To identify the ALK-specific T-cell epitopes, an in vitro peptide screening was performed. A set of 21 overlapping synthetic long peptides (SLP), that encompassed the ALK cytoplasmic domain (FIG. 9A; Table 1), was incubated with splenocytes isolated from mice vaccinated with a vector encoding most of the ALK cytoplasmic domain (ALK-DNA vaccine) as previously described in Chiarle R, Martinengo C, Mastini C, Ambrogio C, D'Escamard V, Fori G, et al. The anaplastic lymphoma kinase is an effective oncoantigen for lymphoma vaccination.
The interferon-γ release enzyme-linked immune absorbent spot (ELISPOT) assay was performed using a commercial kit (Mouse IFN-γ ELISPOT, Mabtech, Stockholm, Sweden) according to the manufacturer's instructions. Briefly, the ELISPOT plate was prepared in sterile conditions and washed with sterile PBS (200 μL/well) for 5 times. […] All plates were evaluated by a computer assisted ELISPOT reader (CTL Immunospot analyzer, OH, USA).

[4] = system: ALK-specific CD8+ T cells; assay: Vaccination of HLA B*07:02 transgenic mice, IFN-γ ELISPOT of splenocytes; assay type: in vivo, mouse; settings: short and long peptide groups pooled, of 12 mice
From the text: Transgenic mice expressing the human HLA B*07:02 were vaccinated with different peptides containing the core epitopes […] (SEQ ID NO: 4) or […] (SEQ ID NO: 3): […] (SEQ ID NO: 4) (IVRshort), […] (SEQ ID NO: 1) (IVRlong), […] (SEQ ID NO: 3) (RPRshort), […] (SEQ ID NO: 2) (RPRlong). ALK-specific CD8+ T cells responses were detected in 12/12 (100%) mice vaccinated with either the IVRshort peptide or the IVRlong peptide and in 6/12 (50%) of mice vaccinated with either the PRPshort peptide or the RPRlong (FIG. 7D). Finally, ALK-specific CD8+ T cells responses were also detected in peripheral blood mononuclear cells (PBMCs) from 3/6 (50%) ALK+ NSCLC patients when stimulated with the […] (SEQ ID NO: 4) peptide but not with the […] (SEQ ID NO: 3) peptide (FIGS. 7E and 16B; Tables 6-7). Overall, four immunogenic ALK peptides in the context of the HLA A*02:01 and B*07:02 alleles were identified by mass spectrometry that can pave the way toward the design of a human ALK vaccine.
The interferon-γ release enzyme-linked immune absorbent spot (ELISPOT) assay was performed using a commercial kit (Mouse IFN-γ ELISPOT, Mabtech, Stockholm, Sweden) according to the manufacturer's instructions. Briefly, the ELISPOT plate was prepared in sterile conditions and washed with sterile PBS (200 μL/well) for 5 times. Consecutively, the plate was conditioned with fresh DMEM medium (200 μL/well) contained 10% of the same fetal bovine serum used for the splenocytes suspension and incubated for 30 minutes at room temperature. After incubation, the medium was discarded and 2.5×10^5 splenocytes were plated in each well together with the appropriate stimuli. The plate was incubated over/night at 37° C. in humidified conditions with 5% C02. The day after, cells were discarded, and the plate was washed 5 times with PBS. Biotinylated detection anti-IFN-γ mAb (1 μg/mL) was added into the wells, followed by 2 hours of incubation at room temperature. […] All plates were evaluated by a computer assisted ELISPOT reader (CTL Immunospot analyzer, OH, USA).

[5] = system: Ad-EA mice (mEml4-Alk rearranged lung tumor); assay: Lung tumor volume by MRI and survival in Ad-EA mice; assay type: in vivo, mouse; settings: crizotinib 40 mg/kg or lorlatinib 2 mg/kg, MRI
From the text: EML4-ALK transgenic (Tg) mice, which express the human EML4-ALK (E13;A20, human variant 1) driven by the SP-C promoter (henceforth referred as hEML4-ALK Tg mice), and BALB/c mice infected intratracheally with adenovirus carrying the CRISPR/Cas9 system to induce in vivo the Eml4-Alk rearrangement (E14;A20, mouse variant 1) (henceforth referred as Ad-EA mice). […] In these models, magnetic resonance imaging (MRI) (FIG. 1B) allowed precise cohort stratification and tumor follow-up.
Anatomical T2-weighted coronal images were acquired with a respiratory-triggered multislice fast spin echo RARE sequence (TR=4 s, TE=4.5 ms, Rare Factor (RF)=16, FOV=30 mm^2, Matrix=256×256, slices=16-20, slice thickness=1 mm, 2 averages, providing an in-plane spatial resolution of 117 μm) with a 7T MRI (Bruker Advance III, Ettlingen, Germany) scanner equipped with a quadrature 1H coil. Animals were anesthetized by intraperitoneal injection of a combination of ROMPUN® (Bayer, 5 mg/kg) and ZOLETIL 100® (Laboratoires Virbac, 20 mg/kg); breathing was monitored during acquisition of the MR images with a respiratory sensor (SA Instruments, Inc.). Tumor volumes and numbers of masses calculations were performed by manual segmentation (slice by slice contouring) with ITK-SNAP software (www.itksnap.org).
Syngeneic mice models transplanted with tumor cells were treated intraperitoneally with 200 μg of anti-PD-1 and/or anti-CTLA-4 (clone 9D9, Bioxcell), on days 3, 6, and 9 post-tumor transplantation (3 injections/per mouse).

[6] = system: CD8^+ T cells from NSCLC patients; assay: IFN-γ ELISPOT of patient CD8^+ T cells expanded with ALK peptides; assay type: cell-based, human
Experimental: Non-small cell lung cancer (NSCLC) patients, at the Dana-Farber Cancer Institute, consented to an institutional review board (IRB)-approved correlative research protocol that allowed for review of medical records and sample collection. Lung cancer mutation status was determined using standard CLIA-certified clinical assays in the Center for Advanced Molecular Diagnostics at Brigham and Women's Hospital. For each patient, 10 mL of whole blood was collected into K3-EDTA tubes, and peripheral blood mononuclear cells (PBMCs) (peripheral blood mononuclear cells) were isolated with Ficoll-Paque Plus density separation (GE Healthcare), and consequently frozen until use.
Frozen PBMCs from patients with NSCLC were thawed, resuspended in cold RPMI containing 3% of human AB heat-inactivated serum (Sigma Aldrich), and cultured in a T-175 culture flask for 50 min. at 37° C. in 5% C02 to induce the attachment of CD14^+ monocytes to the plastic. The remaining floating PBMCs were removed with gentle washes of PBS and warm media. Monocytes were then cultured in RPMI containing 3% of human AB heat-inactivated serum, 2% Penicillin/Streptomycin, 1% Glutamine, and 25 nM HEPES with GM-CSF (120 ng/mL, Preprotech) and IL-4 (70 ng/mL, Preprotech). Fresh GM_CSF and IL-4 were added on days 3 and 5. On day 6, Poly I:C (30 μg/mL, Sigma Aldrich) was added for 24 hours to induce DCs maturation.
B cells were expanded using the CD40 system (68,69). Briefly, NIH-3T3-CD40L cells were irradiated (9600 rads) and plated in a 6 well plate (400.000 cells/well) without Gentamycin. The following day, 8×10^6 PBMCs were resuspended in 4 mL of IMDM (Glutamine, Hepes, Gibco) containing 10% human AB serum heat-inactivated (Sigma Aldrich), Transferrin (50 μg/ml, Lonza), Insulin (5 μg/ml, BioXtra), Cyclosporine A (5.5×10^−7M, Sigma Aldrich), IL-4 (2 ng/ml, Preprotech) and Gentamycin (15 μg/ml, Gibco), and co-cultured with the irradiated NIH-3T3-CD40L for 5 days. PBMCs were then counted and cultured at the same concentration together with newly irradiated NIH-3T3-CD40L for 3 more days. After 12 days 95% of the cells were CD19^+ and could be expanded similarly every 3-4 days at a concentration of 10^6/mL. B cells were always used after 15 days of culture.
CD8^+ T cells were purified using magnetic beads (CD8^+ T cell isolation Kit, Miltenyi) and co-cultured with DCs (20:1; around 10^6 CD8^+ T cells:50.000 DCs) in AIM V media (Gibco) with 5% human AB heat-inactivated serum (Sigma Aldrich), 20 units/mL IL-2 (Preprotech) and 10 ng/mL IL-7 (Preprotech). Before co-culture, DCs were pulsed with the 10 μg/mL of the desired peptide in AIM V media without serum at 37° C. in 5% CO2. Fresh IL-2 and IL-7 were added every 3-4 days. After 7 days, 3-4 million PBMCs CD8^+ T cells were co-cultured with peptide-pulsed DCs and cytokines (20-40:1 ratio). 3rd and 4th stimulation stimulations were done using 4-5 million CD8^+ T cells and peptide-pulsed irradiated B cells (ratio 4:1, 3000 rads) and fresh IL2 and IL7 (days 14 and 21). CD8^+ T-cell responses were then evaluated in an IFN-γ-ELISPOT assay (Mabtech) using peptide-pulsed B cells (1:1 ratio) as target cells. CD8^+ T cells were purified the day before the ELISPOT assay and rested overnight in media without cytokines. The ELISPOT was performed with FBS heat inactivated as recommended by the manufacturer. When the human material was limited, PBMCs or B0 cells were used in the first round of stimulation.

AMLDLLHVA
toxicity in vaccinated mice [1]: no detectable toxicity | CD8^+ T cells in the hypothalamus region [1]: Not a significant amount | H&E and pan-HLA immunohistochemistry staining of the hypothalamus region [1]: healthy tissue | weight gain [1]: the same as the control mice

COc1cc(N2CCC(N3CCN(C)CC3)CC2)ccc1Nc1ncc(Cl)c(Nc2ccccc2P(C)(C)=O)n1 [brigatinib]
time to disease progression in most patients [2]: three

LTANMKEVPLFRLRHFPCGNVNYGYQQQGLPLEAAT [SLP20]
number of IFN-γ-spots [3]: Weaker responses

GGDLKSFLRETRPRPSQPSSLAM [RPRlong]
mice with ALK-specific CD8+ T cells responses detected [4]: 50%

C[C@@H](Oc1cc(-c2cnn(C3CCNCC3)c2)cnc1N)c1c(Cl)ccc(F)c1Cl [crizotinib]
tumor response at the end of treatment [5]: stabilized tumors

GYQQQGLPLEAATAPGAGHYEDTILKSKNSMNQPGP [SLP21]
number of IFN-γ-spots [3]: Weaker responses

IVRCIGVSL
toxicity in vaccinated mice [1]: no detectable toxicity | CD8^+ T cells in the hypothalamus region [1]: Not a significant amount | H&E and pan-HLA immunohistochemistry staining of the hypothalamus region [1]: healthy tissue | weight gain [1]: the same as the control mice

FNHQNIVRCIGVSL [IVRlong]
mice with ALK-specific CD8+ T cells responses detected [4]: 100%

RPRPSQPSSL
mice with ALK-specific CD8+ T cells responses detected [4]: 50% | Average Spots Forming Units (2 wells)/20 000 CD8^+ T cells ([6]; Patient 1 (ALK), IVRCIGVSL expanded): 5.5 Spots Forming Units/20 000 CD8 | Average Spots Forming Units (2 wells)/20 000 CD8^+ T cells ([6]; Patient 1 (ALK), RPRPSQPSSL expanded): 4.5 Spots Forming Units/20 000 CD8 | Average Spots Forming Units (2 wells)/20 000 CD8^+ T cells ([6]; Patient 2 (ALK), IVRCIGVSL expanded): 27.5 Spots Forming Units/20 000 CD8 | Average Spots Forming Units (2 wells)/20 000 CD8^+ T cells ([6]; Patient 2 (ALK), RPRPSQPSSL expanded): 0 Spots Forming Units/20 000 CD8 | Average Spots Forming Units (2 wells)/20 000 CD8^+ T cells ([6]; Patient 3 (ALK), IVRCIGVSL expanded): 6.5 Spots Forming Units/20 000 CD8 | Average Spots Forming Units (2 wells)/20 000 CD8^+ T cells ([6]; Patient 3 (ALK), RPRPSQPSSL expanded): 3 Spots Forming Units/20 000 CD8 | Average Spots Forming Units (2 wells)/20 000 CD8^+ T cells ([6]; Patient 4 (ALK), RPRPSQPSSL expanded): 2 Spots Forming Units/20 000 CD8 | Average Spots Forming Units (2 wells)/20 000 CD8^+ T cells ([6]; Patient 5 (KRASG12V), RPRPSQPSSL expanded): 1 Spots Forming Units/20 000 CD8 | Average Spots Forming Units (2 wells)/20 000 CD8^+ T cells ([6]; Patient 6 (EGFR del exon19), IVRCIGVSL expanded): 1.5 Spots Forming Units/20 000 CD8 | Average Spots Forming Units (2 wells)/20 000 CD8^+ T cells ([6]; Patient 6 (EGFR del exon19), RPRPSQPSSL expanded): 10 Spots Forming Units/20 000 CD8 | Average Spots Forming Units (2 wells)/20 000 CD8^+ T cells ([6]; Patient 7 (KRASG12D), IVRCIGVSL expanded): 1 Spots Forming Units/20 000 CD8 | Average Spots Forming Units (2 wells)/20 000 CD8^+ T cells ([6]; Patient 7 (KRASG12D), RPRPSQPSSL expanded): 3 Spots Forming Units/20 000 CD8 | Average Spots Forming Units (2 wells)/20 000 CD8^+ T cells ([6]; Patient 8 (EGFR del exon19), IVRCIGVSL expanded): 2 Spots Forming Units/20 000 CD8 | Average Spots Forming Units (2 wells)/20 000 CD8^+ T cells ([6]; Patient 8 (EGFR del exon19), RPRPSQPSSL expanded): 10 Spots Forming Units/20 000 CD8
